Assay results: US20230129438A1, “IMMUNOMODULATING IMINE-OXAZOLINE AZALIDES” (Zoetis Services LLC, priority 2020, published 2023)
Marks after values point to notes of the source that are not given here.

What was measured:
TNF-α = assay: Bovine whole blood assay, LPS-induced TNF-α; assay type: cell-based; settings: LPS 1 μg/mL
Method: (§1) (protected from light) for 30 minutes.

IL-1β = assay: Bovine whole blood assay, IL-1β; assay type: cell-based; settings: drug concentration giving overstimulation of IL-1β over LPS (cellular toxicity signal)
Method: as §1

[1] = tested on: BRD pathogens, M. haemolytica and P. multocida; assay: In-vitro MIC model, BRD pathogen screening panel; assay type: cell-based; settings: asterisk = at least one BRD bacterial isolate
P. multocida 46572 = assay: In vivo mouse lung infection challenge model (murine efficacy model); settings: for % Survival: 20 mg/kg subcutaneous, CD-1 mice, intranasal challenge, to Day 10, approximate (~%), harmonized relative to vehicle and M9

Row | Structure (SMILES) | IC50 (TNF-α) | IL-Iβ OS of LPS (IL-1β) | MIC flag on Ex# (Table C) [1] | MIC flag on Ex# (Table A) [1] | % Survival (P. multocida 46572) | clinical efficacy, in words (P. multocida 46572; P. multocida infection in mice)
1 | CCNC[C@]1(O)[C@H](C)O[C@@H](O[C@H]2[C@H](C)[C@@H](O[C@@H]3O[C@H](C)C[C@H]4[C@H]3OC(=Nc3ccccc3)N4C)[C@](C)(O)C[C@@H](C)CN[C@H](C)[C@@H](O)[C@](C)(O)[C@@H](CC)OC(=O)[C@@H]2C)C[C@@]1(C)OC (mixture of isomers) [Example A-3, (E/Z)-(2R,3S,4R,5R,8R,10R,11R,12S,13S,14R)-11-(((3aR,4S,6R,7aS)-1,6-dimethyl-2-(phenylimino)hexahydro-2H-pyrano[4,3-d]oxazol-4-yl)oxy)-2-ethyl-13-(((2R,4R,5S,6S)-5-((ethylamino)methyl)-5-hydroxy-4-methoxy-4,6-dimethyltetrahydro-2H-pyran-2-yl)oxy)-3,4,10-trihydroxy-3,5,8,10,12,14-hexamethyl-1-oxa-6-azacyclopentadecan-15-one] | 20 µM | 5 µM | – | – | – | –
2 | CC[C@H]1OC(=O)[C@H](C)[C@@H](O[C@H]2C[C@@](C)(OC)[C@@H](O)[C@H](C)O2)[C@H](C)[C@@H](O[C@@H]2O[C@H](C)C[C@H]3[C@H]2OC(=Nc2ccccc2)N3C)[C@](C)(O)C[C@@H](C)CN[C@H](C)[C@@H](O)[C@]1(C)O (mixture of isomers) [Example C-4, (E/Z)-(2R,3S,4R,5R,8R,10R,11R,12S,13S,14R)-11-(((3aR,4S,6R,7aS)-1,6-dimethyl-2-(phenylimino)hexahydro-2H-pyrano[4,3-d]oxazol-4-yl)oxy)-2-ethyl-3,4,10-trihydroxy-13-(((2R,4R,5S,6S)-5-hydroxy-4-methoxy-4,6-dimethyltetrahydro-2H-pyran-2-yl)oxy)-3,5,8,10,12,14-hexamethyl-1-oxa-6-azacyclopentadecan-15-one] | – | – | C-4* (MIC ≤ 64 μg/mL for at least one BRD bacterial isolate) | – | – | –
3 | CC[C@H]1OC(=O)[C@H](C)[C@@H](O[C@H]2C[C@@](C)(OC)[C@](O)(CNCCCOC)[C@H](C)O2)[C@H](C)[C@@H](O[C@@H]2O[C@H](C)C[C@H]3[C@H]2OC(=Nc2ccc(OC)nc2)N3C)[C@](C)(O)C[C@@H](C)CN[C@H](C)[C@@H](O)[C@]1(C)O (mixture of isomers) [Example A-27, (E/Z)-(2R,3S,4R,5R,8R,10R,11R,12S,13S,14R)-2-ethyl-3,4,10-trihydroxy-13-(((2R,4R,5S,6S)-5-hydroxy-4-methoxy-5-(((3-methoxypropyl)amino)methyl)-4,6-dimethyltetrahydro-2H-pyran-2-yl)oxy)-11-(((3aR,4S,6R,7aS)-2-((6-methoxypyridin-3-yl)imino)-1,6-dimethylhexahydro-2H-pyrano[4,3-d]oxazol-4-yl)oxy)-3,5,8,10,12,14-hexamethyl-1-oxa-6-azacyclopentadecan-15-one] | – | – | – | A-27* (an MIC ≤ 64 μg/mL for at least one BRD bacterial isolate) | – | –
4 | CCCNC[C@]1(O)[C@H](C)O[C@@H](O[C@H]2[C@H](C)[C@@H](O[C@@H]3O[C@H](C)C[C@H]4[C@H]3OC(=Nc3ccccc3)N4C)[C@](C)(O)C[C@@H](C)CN(CCC)[C@H](C)[C@@H](O)[C@](C)(O)[C@@H](CC)OC(=O)[C@@H]2C)C[C@@]1(C)OC (mixture of isomers) [Example A-34, (E/Z)-(2R,3S,4R,5R,8R,10R,11R,12S,13S,14R)-11-(((3aR,4S,6R,7aS)-1,6-dimethyl-2-(phenylimino)hexahydro-2H-pyrano[4,3-d]oxazol-4-yl)oxy)-2-ethyl-3,4,10-trihydroxy-13-(((2R,4R,5S,6S)-5-hydroxy-4-methoxy-4,6-dimethyl-5-((propylamino)methyl)tetrahydro-2H-pyran-2-yl)oxy)-3,5,8,10,12,14-hexamethyl-6-propyl-1-oxa-6-azacyclopentadecan-15-one] | 7 µM | 6 µM | – | – | – | –
5 | CC[C@H]1OC(=O)[C@H](C)[C@@H](O[C@H]2C[C@@](C)(OC)[C@](O)(CN3CCN(CC)CC3)[C@H](C)O2)[C@H](C)[C@@H](O[C@@H]2O[C@H](C)C[C@H]3[C@H]2OC(=Nc2ccccc2)N3C)[C@](C)(O)C[C@@H](C)CN[C@H](C)[C@@H](O)[C@]1(C)O (mixture of isomers) [Example B-2, (E/Z)-(2R,3S,4R,5R,8R,10R,11R,12S,13S,14R)-11-(((3aR,4S,6R,7aS)-1,6-dimethyl-2-(phenylimino)hexahydro-2H-pyrano[4,3-d]oxazol-4-yl)oxy)-2-ethyl-13-(((2R,4R,5S,6S)-5-((4-ethylpiperazin-1-yl)methyl)-5-hydroxy-4-methoxy-4,6-dimethyltetrahydro-2H-pyran-2-yl)oxy)-3,4,10-trihydroxy-3,5,8,10,12,14-hexamethyl-1-oxa-6-azacyclopentadecan-15-one] | 6 µM | 13 µM | – | – | – | –
6 | CC[C@H]1OC(=O)[C@H](C)[C@@H](O[C@H]2C[C@@](C)(OC)[C@](O)(CN3CCN(C)CC3)[C@H](C)O2)[C@H](C)[C@@H](O[C@@H]2O[C@H](C)C[C@H]3[C@H]2OC(=Nc2ccccc2)N3C)[C@](C)(O)C[C@@H](C)CN[C@H](C)[C@@H](O)[C@]1(C)O (mixture of isomers) [Example B-1, (E/Z)-(2R,3S,4R,5R,8R,10R,11R,12S,13S,14R)-11-(((3aR,4S,6R,7aS)-1,6-dimethyl-2-(phenylimino)hexahydro-2H-pyrano[4,3-d]oxazol-4-yl)oxy)-2-ethyl-3,4,10-trihydroxy-13-(((2R,4R,5S,6S)-5-hydroxy-4-methoxy-4,6-dimethyl-5-((4-methylpiperazin-1-yl)methyl)tetrahydro-2H-pyran-2-yl)oxy)-3,5,8,10,12,14-hexamethyl-1-oxa-6-azacyclopentadecan-15-one] | 8 µM | 13 µM | – | – | 43% | –
7 | CCNC[C@]1(O)[C@H](C)O[C@@H](O[C@H]2[C@H](C)[C@@H](O[C@@H]3O[C@H](C)C[C@H]4[C@H]3OC(=Nc3ccc(OC)cc3)N4C)[C@](C)(O)C[C@@H](C)CN[C@H](C)[C@@H](O)[C@](C)(O)[C@@H](CC)OC(=O)[C@@H]2C)C[C@@]1(C)OC (mixture of isomers) [Example A-12, (E/Z)-(2R,3S,4R,5R,8R,10R,11R,12S,13S,14R)-2-ethyl-13-(((2R,4R,5S,6S)-5-((ethylamino)methyl)-5-hydroxy-4-methoxy-4,6-dimethyltetrahydro-2H-pyran-2-yl)oxy)-3,4,10-trihydroxy-11-(((3aR,4S,6R,7aS)-2-((4-methoxyphenyl)imino)-1,6-dimethylhexahydro-2H-pyrano[4,3-d]oxazol-4-yl)oxy)-3,5,8,10,12,14-hexamethyl-1-oxa-6-azacyclopentadecan-15-one] | 15 µM | 32 µM | – | – | – | –
8 | CCCNC[C@]1(O)[C@H](C)O[C@@H](O[C@H]2[C@H](C)[C@@H](O[C@@H]3O[C@H](C)C[C@H]4[C@H]3OC(=Nc3ccc(OC)cc3)N4C)[C@](C)(O)C[C@@H](C)CN(C)[C@H](C)[C@@H](O)[C@](C)(O)[C@@H](CC)OC(=O)[C@@H]2C)C[C@@]1(C)OC (mixture of isomers) [Example A-30, (E/Z)-(2R,3S,4R,5R,8R,10R,11R,12S,13S,14R)-2-ethyl-3,4,10-trihydroxy-13-(((2R,4R,5S,6S)-5-hydroxy-4-methoxy-4,6-dimethyl-5-((propylamino)methyl)tetrahydro-2H-pyran-2-yl)oxy)-11-(((3aR,4S,6R,7aS)-2-((4-methoxyphenyl)imino)-1,6-dimethylhexahydro-2H-pyrano[4,3-d]oxazol-4-yl)oxy)-3,5,6,8,10,12,14-heptamethyl-1-oxa-6-azacyclopentadecan-15-one] | 10 µM | 16 µM | – | – | – | –
9 | CC[C@H]1OC(=O)[C@H](C)[C@@H](O[C@H]2C[C@@](C)(OC)[C@](O)(CN3CCOCC3)[C@H](C)O2)[C@H](C)[C@@H](O[C@@H]2O[C@H](C)C[C@H]3[C@H]2OC(=Nc2ccc(OC)cc2)N3C)[C@](C)(O)C[C@@H](C)CN[C@H](C)[C@@H](O)[C@]1(C)O (mixture of isomers) [Example B-4, (E/Z)-(2R,3S,4R,5R,8R,10R,11R,12S,13S,14R)-2-ethyl-3,4,10-trihydroxy-13-(((2R,4R,5S,6S)-5-hydroxy-4-methoxy-4,6-dimethyl-5-(morpholinomethyl)tetrahydro-2H-pyran-2-yl)oxy)-11-(((3aR,4S,6R,7aS)-2-((4-methoxyphenyl)imino)-1,6-dimethylhexahydro-2H-pyrano[4,3-d]oxazol-4-yl)oxy)-3,5,8,10,12,14-hexamethyl-1-oxa-6-azacyclopentadecan-15-one] | < 5 µM | 13 µM | – | – | 37% | clinically efficacious
10 | CCCNC[C@]1(O)[C@H](C)O[C@@H](O[C@H]2[C@H](C)[C@@H](O[C@@H]3O[C@H](C)C[C@H]4[C@H]3OC(=Nc3ccccc3)N4C)[C@](C)(O)C[C@@H](C)CN[C@H](C)[C@@H](O)[C@](C)(O)[C@@H](CC)OC(=O)[C@@H]2C)C[C@@]1(C)OC (mixture of isomers) [Example A-6, (E/Z)-(2R,3S,4R,5R,8R,10R,11R,12S,13S,14R)-11-(((3aR,4S,6R,7aS)-1,6-dimethyl-2-(phenylimino)hexahydro-2H-pyrano[4,3-d]oxazol-4-yl)oxy)-2-ethyl-3,4,10-trihydroxy-13-(((2R,4R,5S,6S)-5-hydroxy-4-methoxy-4,6-dimethyl-5-((propylamino)methyl)tetrahydro-2H-pyran-2-yl)oxy)-3,5,8,10,12,14-hexamethyl-1-oxa-6-azacyclopentadecan-15-one] | < 5 µM | 13 µM | – | – | 54% | –
